According to the NIST ThermoML archive (doi:10.1016/j.jct.2017.03.006):

Assay: xn = mol fraction of the nth substance listed
Conditions: 333.15 K, Liquid, Vibrating tube method

Cc1ccc(C)c(C)c1 [1,2,4-trimethylbenzene] + CCCCO
mass density [kg/m3]
Conditions | x2 = 0 | x2 = 0.1005 | x2 = 0.2261 | x2 = 0.2999 | x2 = 0.3966 | x2 = 0.5289 | x2 = 0.6367 | x2 = 0.7249 | x2 = 0.7977 | x2 = 0.9131
40000 kPa | – | – | – | – | – | – | – | – | – | 815.6
50000 kPa | 877.4 | 871.4 | 865.1 | 861.1 | 855.9 | 848.3 | 841.6 | 835.7 | 830.5 | 821.7
60000 kPa | 883 | 877.1 | 870.8 | 866.8 | 861.6 | 854 | 847.3 | 841.4 | 836.3 | 827.5
70000 kPa | 888.2 | 882.3 | 876.2 | 872.2 | 866.9 | 859.5 | 852.7 | 846.9 | 841.7 | 832.9
80000 kPa | 893.2 | 887.4 | 881.2 | 877.2 | 872 | 864.6 | 857.8 | 852 | 846.8 | 838
90000 kPa | 898 | 892.2 | 886 | 882.1 | 876.9 | 869.4 | 862.7 | 856.9 | 851.7 | 842.9
100000 kPa | 902.5 | 896.8 | 890.7 | 886.7 | 881.5 | 874.1 | 867.4 | 861.6 | 856.4 | 847.6
120000 kPa | 911.1 | 905.4 | 899.4 | 895.4 | 890.3 | 882.8 | 876.1 | 870.3 | 865.2 | 856.4
140000 kPa | 919 | 913.3 | 907.6 | 903.3 | 898.3 | 891 | 884.3 | 878.6 | 873.5 | 864.5
